Laboratory results published in publication PMC6193938, “Characterization of a novel AICARFT inhibitor which potently elevates ZMP and has anti-tumor activity in murine models” (Scientific Reports, 2018).

Assays:
MDA-MB-231met2 cells = experiment: MS detection of ZMP in cultured cells; format: cell-based, human; conditions: regular RPMI, calculated with 4 pL cell volume
Description: To mimic human plasma levels, low folate media is traditionally used in which the folate comes only from the defined fetal bovine serum. […] Because LSN3213128 would be dosed in mice on normal diet, cell line screening was performed under standard tissue culture conditions to identify cell lines sensitive to treatment under high folate conditions. In order to compare tissue culture values with tumor levels, an average 4 pL cell volume[36] was used to calculate cellular ZMP concentrations. In MDA-MB-231[…] cells using regular RPMI, the peak intracellular ZMP levels are about 770 μM while in the salvage deficient A9 cells ZMP is 6,500 μM. […] It is not surprising that in vivo in mice on standard chow where folate plasma levels are >10-fold lower than tissue culture that tumor ZMP levels are also lower. […] ZMP was detected in cultured cells via mass spec analysis. Cells were plated in 96-well plates at 25,000 cells per well in 100 μL with either high or low folate RPMI media and incubated overnight at 37 °C with 5% CO2. […] […] dUMP were detected using positive ion TurboIonSpray® multiple reaction monitoring mode and the data were processed with AB Sciex MultiQuantTM. Back-calculated ZMP concentrations were fit to a four-parameter logistic equation using ACTIVITYBASE 4.0 to determine EC50 values relative to the maximum observed metabolite levels.

PDK1 = target: T1, PDK1 (Homo sapiens, UniProt O15530); experiment: CEREP protein kinase assay; format: biochemical
T1 construct: purchased CEREP Panlabs (Eurofins)
T1 sequence (O15530 1-556): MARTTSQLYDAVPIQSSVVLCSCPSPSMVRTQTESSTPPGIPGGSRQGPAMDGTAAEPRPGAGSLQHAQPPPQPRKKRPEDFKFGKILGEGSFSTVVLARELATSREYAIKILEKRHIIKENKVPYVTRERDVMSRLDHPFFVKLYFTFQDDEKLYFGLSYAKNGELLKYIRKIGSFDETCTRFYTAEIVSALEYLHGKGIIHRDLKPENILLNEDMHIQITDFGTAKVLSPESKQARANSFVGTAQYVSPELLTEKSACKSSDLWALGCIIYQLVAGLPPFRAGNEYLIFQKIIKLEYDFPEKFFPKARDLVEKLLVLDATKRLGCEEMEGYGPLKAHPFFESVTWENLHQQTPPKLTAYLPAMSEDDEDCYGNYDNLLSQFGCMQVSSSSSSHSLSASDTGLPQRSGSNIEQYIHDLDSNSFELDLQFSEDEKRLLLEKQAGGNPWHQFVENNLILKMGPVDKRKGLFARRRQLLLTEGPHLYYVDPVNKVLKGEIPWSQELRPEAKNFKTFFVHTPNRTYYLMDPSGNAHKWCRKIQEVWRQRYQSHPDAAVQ

DDR2 = target: T2, DDR2 (Homo sapiens, UniProt Q16832); experiment: CEREP protein kinase assay; format: biochemical
T2 construct: purchased CEREP Panlabs (Eurofins)
T2 sequence (Q16832 22-855): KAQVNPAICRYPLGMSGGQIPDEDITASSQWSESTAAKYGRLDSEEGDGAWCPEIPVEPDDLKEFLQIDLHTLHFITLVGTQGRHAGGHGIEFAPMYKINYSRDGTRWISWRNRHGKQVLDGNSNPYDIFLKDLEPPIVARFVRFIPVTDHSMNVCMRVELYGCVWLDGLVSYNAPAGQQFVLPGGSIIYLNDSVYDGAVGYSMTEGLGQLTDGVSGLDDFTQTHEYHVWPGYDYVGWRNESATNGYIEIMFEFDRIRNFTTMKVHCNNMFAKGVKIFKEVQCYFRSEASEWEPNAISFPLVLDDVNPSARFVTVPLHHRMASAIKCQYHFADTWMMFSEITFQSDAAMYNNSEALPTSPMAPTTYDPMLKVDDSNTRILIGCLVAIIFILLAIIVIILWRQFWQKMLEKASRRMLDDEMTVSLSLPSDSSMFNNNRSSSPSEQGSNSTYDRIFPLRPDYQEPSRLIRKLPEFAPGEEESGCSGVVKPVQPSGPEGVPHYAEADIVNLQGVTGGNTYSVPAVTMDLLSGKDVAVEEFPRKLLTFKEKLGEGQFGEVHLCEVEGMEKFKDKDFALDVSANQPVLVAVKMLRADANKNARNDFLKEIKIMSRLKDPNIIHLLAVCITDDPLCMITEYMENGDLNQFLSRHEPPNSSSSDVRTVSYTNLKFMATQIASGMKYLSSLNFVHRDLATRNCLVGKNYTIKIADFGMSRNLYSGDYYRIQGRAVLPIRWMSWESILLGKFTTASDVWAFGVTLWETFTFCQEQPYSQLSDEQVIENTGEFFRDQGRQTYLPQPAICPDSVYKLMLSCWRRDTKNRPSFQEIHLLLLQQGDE

Pharmacokinetic studies = format: in vivo; conditions: mouse
Description: Blood samples were obtained through tail clip at 0, 0.08 (IV only), 0.25, 0.75, 2, 4, 8, and 24 hours where approximately 20 µL of blood was filled to capacity into EDTA-coated capillary tubes (Fisher Scientific,) and spotted on to Whatman® DMPK-C DBS collection (GE Healthcare Bio-Sciences). Once spotted, the cards were allowed to dry for 2 hours, placed in Ziploc® bags (S.C. Johnson & Son, Inc.) and shipped to the bioanalytical facility at ambient temperature. Punches (3 mm) from DBS cards were extracted with 180 µL of a 20 ng/mL analog IS (proprietary Lilly compound) in methanol/acetonitrile (1:1, v/v) solution in 96-well plates. Samples were quantitated using LC-MS analysis (AB Sciex® API 4000 triple-quadrupole mass spectrometer (Life Technologies Corporation). PK parameters were calculated for concentration time profiles using Watson LIMS version 7.4 (Thermo Scientific).

protein kinase = experiment: Panel of protein kinase assays at CEREP Panlabs (Eurofins), overall; format: biochemical
[1] = male, CD-1, whole blood (dried blood spots), oral 10 mg/kg

SMILES: O=c1[nH]ccc2cc(F)c(NS(=O)(=O)c3ccc(N4CC[C@@H](O)C4)s3)cc12 [LSN3213128, N-(6-Fluoro-1-oxo-1,2-dihydroisoquinolin-7-yl)-5-[(3R)-3-hydroxypyrrolidin-1-yl]thiophene-2-sulfonamide]
- peak intracellular ZMP levels (MDA-MB-231met2 cells): about 770 μM
- inhibition at 0.2 µM (PDK1; @ 0.2 uM): 14.1%
- inhibition at 2 µM (PDK1; @ 2 uM): 15.8%
- inhibition at 20 µM (PDK1; @ 20 uM): 26.8%
- inhibition at 0.2 µM (DDR2; @ 0.2 uM): -16.5%
- inhibition at 2 µM (DDR2; @ 2 uM): -13.4%
- inhibition at 20 µM (DDR2; @ 20 uM): -3.1%
- Vd (Pharmacokinetic studies; male, CD-1, whole blood (dried blood spots), intravenous 1 mg/kg, read-out: volume of distribution): 0.779 ± 0.17 L/kg
- AUC (Pharmacokinetic studies; [1]): 20.2 ± 4.52 µM·h
- Cmax (Pharmacokinetic studies; [1]): 4.57 ± 0.559 µM
- bioavailability (Pharmacokinetic studies; male, CD-1, whole blood (dried blood spots), oral 10 mg/kg vs intravenous 1 mg/kg): 24.6 ± 4.6%
- half-life (Pharmacokinetic studies; oral 10 mg/kg): 2.4 ± 0.3 h
- unbound Cmax (Pharmacokinetic studies; oral 10 mg/kg): 0.251 ± 0.031 µM
- protein kinase activity, panel (protein kinase): no significant protein kinase activity
